This note sets out measurements from patent US7585859B2, “PDE4B inhibitors and uses therefor” (Plexxikon, Inc., priority 2004, dated 2009).

Each structure is given as a SMILES string. Like-named read-outs stand apart in the source and are kept apart here.

The target of one assay is T1, PDE4D (Homo sapiens, UniProt Q08499).
T1 construct: PDE4D: The catalytic domain of human PDE4B from S3 16-V692; His6 (N); thrombin cleavage site (N); made in house; host or cells: E. coli
The assay can be described thus: PDE4 IC50 determination by Scintillation Proximity Assay, PDE4D. Type of assay: biochemical. The procedure: (§1) IC50s were determined by Scintillation Proximity Assay (SPA). The principle of the assay is based on the fact that cAMP, the PDE4 substrate, binds weakly to Yittrium Silicate SPA beads, whereas AMP, the product of PDE4 hydrolysis binds strongly. Thus, the extent of PDE4 hydrolysis of a sample of [^3H]cAMP can be measured because only the
(§2) [^3H]AMP produced by PDE4 hydrolysis will bind to the SPA beads and produce a scintillation signal.
(§3) PDE4 enzymes used for IC50 assays were:
(§4) Enzyme was stored in 50% glycerol at −20°.
(§5) In addition to the compound dilutions, each assay plate contained control wells with 1 μl of DMSO (to define 0% enzyme inhibition) or 1 μl of 200 μM roflumilast (to define 100% enzyme inhibition). […] Next, 10 μl of PDE4 enzyme in assay buffer was added and the plates were shaken for 30 s. at 1000 rpm to start the cAMP hydrolysis reaction. The concentrations of enzyme used were: PDE4B, 80 ng/ml; PDE4D, 4 ng/ml; PDE4B2, 2.5 μl of 50% glycerol stock/ml; PDE4D5 0.083 μl of 50% glycerol stock/ml. Assay plates were covered and incubated for 30 min. at 30°. […] The assay plates were covered with clear plastic film, centrifuged for 1 min. at 1000 RPM to settle the SPA beads, and counted using a Wallac TriLux scintillation counter. IC50's were calculated from the raw assay data by non-linear regression curve fitting using the Assay Explorer software package from MDL.

In assay [1] the target is T2, PDE4B: The catalytic domain of human PDE4B from S152-S528 (Homo sapiens, UniProt Q07343).
T2 construct: His6 (N); thrombin cleavage site (N); made in house; host or cells: E. coli
T2 sequence (Q07343 with tags, fused parts or gaps): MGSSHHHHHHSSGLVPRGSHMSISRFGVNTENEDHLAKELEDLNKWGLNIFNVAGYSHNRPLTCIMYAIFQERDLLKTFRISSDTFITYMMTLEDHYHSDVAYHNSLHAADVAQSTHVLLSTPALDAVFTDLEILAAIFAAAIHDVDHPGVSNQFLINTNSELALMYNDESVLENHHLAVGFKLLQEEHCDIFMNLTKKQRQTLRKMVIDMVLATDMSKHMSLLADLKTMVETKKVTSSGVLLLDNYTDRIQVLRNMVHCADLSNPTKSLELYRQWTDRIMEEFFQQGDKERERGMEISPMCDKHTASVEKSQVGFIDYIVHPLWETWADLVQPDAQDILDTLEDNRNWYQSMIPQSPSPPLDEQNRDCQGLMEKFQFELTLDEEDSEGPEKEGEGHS
Briefly: PDE4 IC50 determination by Scintillation Proximity Assay, PDE4B. Type of assay: biochemical. The procedure:
as §1, §2, §3, §4, §5

The mark [2] stands for this setting: Table 1B, Formula I compounds, read-out: IC50 PDE4D.
The mark [3] stands for this setting: Table 1B, Formula I compounds, read-out: IC50 PDE4B.
[4] abbreviates: first part of Table 2B (2-1 to 2-22), read-out: IC 50 vs. indicated assay PDE4D.
The mark [5] stands for this setting: first part of Table 2B (2-1 to 2-22), read-out: IC 50 vs. indicated assay PDE4B.
The mark [6] stands for this setting: Table 3A, Formula III compounds, read-out: IC50 PDE4D.
Setting [7] is: Table 3A, Formula III compounds, read-out: IC50 PDE4B.
Setting [8] is: second part of Table 2B (2-23 to 2-103), column 5, column is PDE4D in first part, read-out: IC 50 vs. indicated assay h TNFα.
Setting [9] is: second part of Table 2B (2-23 to 2-103), column 3, column is PDE4B in first part, read-out: IC 50 vs. indicated assay h TNFα.

T1 sequence (Q08499 380-756): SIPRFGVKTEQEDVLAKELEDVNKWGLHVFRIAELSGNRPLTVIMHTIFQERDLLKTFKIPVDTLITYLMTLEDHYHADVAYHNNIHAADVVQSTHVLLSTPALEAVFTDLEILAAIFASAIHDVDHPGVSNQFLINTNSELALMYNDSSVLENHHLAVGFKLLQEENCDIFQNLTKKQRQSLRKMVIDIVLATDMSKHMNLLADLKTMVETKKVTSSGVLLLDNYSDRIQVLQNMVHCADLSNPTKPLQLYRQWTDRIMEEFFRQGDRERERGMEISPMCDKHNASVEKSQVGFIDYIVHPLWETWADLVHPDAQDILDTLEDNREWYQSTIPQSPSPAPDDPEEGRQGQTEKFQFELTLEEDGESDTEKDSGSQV

On to `N#Cc1c(NC2CCCC2)sc(C(=O)c2csc3ccccc23)c1N` [Compound 1-124, 4-Amino-5-(benzo[b]thiophene-3-carbonyl)-2-cyclopentylamino-thiophene-3-carbonitrile], for which the IC50 at PDE4D (setting [2]) was more than 10 µM; in assay [1] (setting [3]) it was less than 10 µM.
As to `CC(C)CNc1nc(N)c(C(=O)c2cc(-c3ccc(Cl)c(Cl)c3)no2)s1` [Compound 2-15, (4-Amino-2-isobutylamino-thiazol-5-yl)-[3-(3,4-dichloro-phenyl)-isoxazol-5-yl]-methanone], the IC50 (at PDE4D (setting [4]); in assay [1] (setting [5])) was less than 10 µM throughout.
Regarding `N#Cc1c(NCCN2CCCCC2)sc(C(=O)c2coc3ccccc23)c1N` [Compound 1-45, 4-Amino-5-(benzofuran-3-carbonyl)-2-(2-piperidin-1-yl-ethylamino)-thiophene-3-carbonitrile], the IC50 (on PDE4D (setting [2]); in assay [1] (setting [3])) was more than 10 µM each time.
In the case of `CCOC(=O)c1cc(C(=O)c2sc(NC(CC(C)C)C(=O)OC)c(C#N)c2N)on1` (stereo not drawn) [Compound 1-137, 5-[3-Amino-4-cyano-5-(1-methoxycarbonyl-3-methyl-butylamino)-thiophene-2-carbonyl]-isoxazole-3-carboxylic acid ethyl ester], the values for the IC50 (at PDE4D (setting [2]); in assay [1] (setting [3])) were more than 10 µM and less than 10 µM, respectively.
`N#Cc1c(Nc2ccc(Oc3ccccc3)cc2)sc(C(=O)c2cccc(Cl)c2)c1N` [Compound 1-163, 4-Amino-5-(3-chloro-benzoyl)-2-(4-phenoxy-phenylamino)-thiophene-3-carbonitrile]: the IC50 at PDE4D (setting [2]) was more than 10 µM; in assay [1] (setting [3]), less than 10 µM.
Take `COC(=O)c1ccc(S(=O)(=O)Nc2c(C)ccc3cccnc23)o1` [Compound 3-43, 5-(7-Methyl-quinolin-8-ylsulfamoyl)-furan-2-carboxylic acid methyl ester]: the IC50 (on PDE4D (setting [6]); in assay [1] (setting [7])) was more than 10 µM each time.
On to `Nc1nc(Nc2cccc3ccccc23)sc1C(=O)c1ccccc1` [Compound 2-70, [4-Amino-2-(naphthalen-1-ylamino)-thiazol-5-yl]-phenyl-methanone], for which the IC50 (on PDE4D (setting [8]); in assay [1] (setting [9])) was less than 10 µM each time.
Regarding `Nc1nc(NC2CCCC2)sc1C(=O)c1ccc(-c2ccccn2)s1` [Compound 2-17, (4-Amino-2-cyclopentylamino-thiazol-5-yl)-(5-pyridin-2-yl-thiophen-2-yl)-methanone], the IC50 (at PDE4D (setting [4]); in assay [1] (setting [5])) was less than 10 µM in each case.
`N#Cc1c(NC2CCCC2)sc(C(=O)c2csc(-c3ccccc3)n2)c1N` [Compound 1-235, 4-Amino-2-cyclopentylamino-5-(2-phenyl-thiazole-4-carbonyl)-thiophene-3-carbonitrile]: the IC50 (at PDE4D (setting [2]); in assay [1] (setting [3])) was less than 10 µM each time.
On to `Cc1ccc2cccnc2c1NS(=O)(=O)c1cc(Cl)sc1Cl` [Compound 3-11, 2,5-Dichloro-thiophene-3-sulfonic acid (7-methyl-quinolin-8-yl)-amide], for which the IC50 (at PDE4D (setting [6]); in assay [1] (setting [7])) was more than 10 µM throughout.
As for `Nc1nc(Nc2ccccc2Cl)sc1C(=O)c1ccccc1` [Compound 2-29, [4-Amino-2-(2-chloro-phenylamino)-thiazol-5-yl]-phenyl-methanone], the IC50 (at PDE4D (setting [8]); in assay [1] (setting [9])) was less than 10 µM throughout.
For the compound `N#Cc1c(NC2CCCC2)sc(C(N)=O)c1N` [Compound 1-196, 3-Amino-4-cyano-5-cyclopentylamino-thiophene-2-carboxylic acid amide], the IC50 (at PDE4D (setting [2]); in assay [1] (setting [3])) was more than 10 µM each time.
`COC(=O)C(CC(C)C)Nc1sc(C(=O)c2cc(-c3ccccc3)no2)c(N)c1C#N` (stereo not drawn) [Compound 1-141, 2-[4-Amino-3-cyano-5-(3-phenyl-isoxazole-5-carbonyl)-thiophen-2-ylamino]-4-methyl-pentanoic acid methyl ester]: the IC50 (at PDE4D (setting [2]); in assay [1] (setting [3])) was less than 10 µM in each case.
With `COC(=O)c1ccccc1Nc1sc(C(=O)c2ccc(-c3ccccn3)s2)c(N)c1C#N` [Compound 1-73, 2-[4-Amino-3-cyano-5-(5-pyridin-2-yl-thiophene-2-carbonyl)-thiophen-2-ylamino]-benzoic acid methyl ester], the IC50 (on PDE4D (setting [2]); in assay [1] (setting [3])) was less than 10 µM each time.
`COC(=O)C(CC(C)C)Nc1sc(C(=O)c2ccc(OC)cc2OC)c(N)c1C#N` (stereo not drawn) [Compound 1-42, 2-[4-Amino-3-cyano-5-(2,4-dimethoxy-benzoyl)-thiophen-2-ylamino]-4-methyl-pentanoic acid methyl ester]: the IC50 was more than 10 µM on PDE4D (setting [2]) and less than 10 µM in assay [1] (setting [3]).
As to `N#Cc1c(Nc2ccc(Oc3ccccc3)cc2)sc(C(=O)C2CC2)c1N` [Compound 1-184, 4-Amino-5-cyclopropanecarbonyl-2-(4-phenoxy-phenylamino)-thiophene-3-carbonitrile], the IC50 (on PDE4D (setting [2]); in assay [1] (setting [3])) was less than 10 µM throughout.
`CCC(CC)Nc1sc(C(=O)c2ccc(Oc3ccccc3)cc2)c(N)c1C#N` [Compound 1-229, 4-Amino-2-(1-ethyl-propylamino)-5-(4-phenoxy-benzoyl)-thiophene-3-carbonitrile]: the IC50 (on PDE4D (setting [2]); in assay [1] (setting [3])) was less than 10 µM each time.
Take `CC(C)CNc1nc(N)c(C(=O)c2cc(-c3ccc(Cl)cc3)no2)s1` [Compound 2-16, (4-Amino-2-isobutylamino-thiazol-5-yl)-[3-(4-chloro-phenyl)-isoxazol-5-yl]-methanone]: the IC50 (at PDE4D (setting [4]); in assay [1] (setting [5])) was less than 10 µM in each case.
`Cc1cc(Cl)ccc1Nc1sc(C(=O)c2cc3cc(Cl)ccc3o2)c(N)c1C#N` [Compound 1-23, 4-Amino-5-(5-chloro-benzofuran-2-carbonyl)-2-(4-chloro-2-methyl-phenylamino)-thiophene-3-carbonitrile]: the IC50 (at PDE4D (setting [2]); in assay [1] (setting [3])) was more than 10 µM throughout.
For the compound `COc1cc(C#N)c(Nc2sc(C(=O)c3ccc(Cl)cc3)c(N)c2C#N)cc1OC` [Compound 1-19, 4-Amino-5-(4-chloro-benzoyl)-2-(2-cyano-4,5-dimethoxy-phenylamino)-thiophene-3-carbonitrile], the IC50 (at PDE4D (setting [2]); in assay [1] (setting [3])) was less than 10 µM in each case.
Regarding `COc1ccc(OC)c(C(=O)c2sc(Nc3ccc(C(=O)NC4CCOC4=O)cc3)c(C#N)c2N)c1` (stereo not drawn) [Compound 1-97, 4-[4-Amino-3-cyano-5-(2,5-dimethoxy-benzoyl)-thiophen-2-ylamino]-N-(2-oxo-tetrahydro-furan-3-yl)-benzamide], the IC50 is less than 10 µM at PDE4D (setting [2]) and more than 10 µM in assay [1] (setting [3]).
As for `COc1ccc(Nc2nc(N)c(C(=O)c3ccc(OC(F)F)cc3)s2)cc1` [Compound 2-59, [4-Amino-2-(4-methoxy-phenylamino)-thiazol-5-yl]-(4-difluoromethoxy-phenyl)-methanone], the IC50 (at PDE4D (setting [8]); in assay [1] (setting [9])) was less than 10 µM in each case.
Consider `N#Cc1c(Nc2ccc(C(=O)NC3CCOC3=O)cc2)sc(C(=O)c2coc3ccccc23)c1N` (stereo not drawn) [Compound 1-108, 4-[4-Amino-5-(benzofuran-3-carbonyl)-3-cyano-thiophen-2-ylamino]-N-(2-oxo-tetrahydro-furan-3-yl)-benzamide], for which the IC50 (on PDE4D (setting [2]); in assay [1] (setting [3])) was less than 10 µM throughout.
On to `COc1ccc(C(=O)c2sc(Nc3ccccc3)nc2N)cc1OC` [Compound 2-31, (4-Amino-2-phenylamino-thiazol-5-yl)-(3,4-dimethoxy-phenyl)-methanone], for which the IC50 (at PDE4D (setting [8]); in assay [1] (setting [9])) was less than 10 µM in each case.
With `Cc1onc(-c2ccccc2)c1C(=O)c1sc(NCCN2CCCCC2)c(C#N)c1N` [Compound 1-59, 4-Amino-5-(5-methyl-3-phenyl-isoxazole-4-carbonyl)-2-(2-piperidin-1-yl-ethylamino)-thiophene-3-carbonitrile], the IC50 (at PDE4D (setting [2]); in assay [1] (setting [3])) was more than 10 µM throughout.
For the compound `Nc1nc(Nc2ccccn2)sc1C(=O)c1ccccc1` [Compound 2-73, [4-Amino-2-(pyridin-2-ylamino)-thiazol-5-yl]-phenyl-methanone], the IC50 was more than 10 µM at PDE4D (setting [8]) and less than 10 µM in assay [1] (setting [9]).
On to `COc1cccc(C(=O)c2sc(Nc3ccccc3F)nc2N)c1` [Compound 2-62, [4-Amino-2-(2-fluoro-phenylamino)-thiazol-5-yl]-(3-methoxy-phenyl)-methanone], for which the IC50 (at PDE4D (setting [8]); in assay [1] (setting [9])) was less than 10 µM in each case.
